Experimental data from PMC6332200, “Isolation and Identification of Cytotoxic Compounds from Aeschynomene fascicularis, a Mayan Medicinal Plant” (Molecules, 2015).
“And” between values parts separate entries of the source, which are not always exact repeats. Equal entries are not always repeated.

Columns and labels:
[1] = Cytotoxicity MTT assay, MDCK normal cell line; assay type: cell-based; conditions: dog, MDCK cells (normal cell line), read-out: Cytotoxic activity CC50
Protocol: (§1) Three types of cancer cell lines obtained from the American Type Culture Collection (ATCC) were cultured: two oral-laryngeal cancer cell lines, nasopharynx carcinoma (KB, ATCC-CCL-17) and laryngeal carcinoma (Hep-2, ATCC-CCL-23); two cervix-uterine cancer cell lines, cervix adenocarcinoma (HeLa, ATCC-CCL-2) and cervix squamous carcinoma (SiHa, ATCC-HTB-35); and two prostate cancer cell lines, prostate carcinoma (DU-145, ATCC-HTB-81) and prostate adenocarcinoma (PC-3, ATCC-CRL-1435); along with one normal cell line (MDCK, ATCC-CCL-34). The cells were cultured in sterile Costar T75 flasks containing DMEM (Gibco, Hong Kong, China), supplemented with fetal bovine serum (10%, v/v), 100 U/mL penicillin G, and […] streptomycin at 37 °C in an atmosphere of 5% CO2 (95% humidity). At 70%–80% confluence, cells were detached from the cultured flask by treatment with 0.05% trypsin-EDTA (Gibco), and a suspension of 5 × 10^4 cells/mL of viable cells was seeded in a 96-well microtiter plate (Costar, Washington, DC, USA) and incubated. Cytotoxicity was assessed by the MTT assay as previously described by Rahman. When cells reached 90% confluence in a microtiter plate, the DMEM was replaced with fresh medium and cells were incubated with compounds at various concentrations. […] The medium was aspirated, and the formazan product was solubilized with acidified isopropanol (0.4 N HCl). The amount of MTT-formazan is directly proportional to the number of living cells and was determined by measuring the optical density (OD) at 590 nm using a bioassay reader (Bio-Rad). All determinations were performed in triplicate. The cytotoxic and antiproliferative activities of tested compounds were calculated as the percentage of cells killed or the percentage of inhibition of cell proliferation, respectively, using the equation: growth inhibition (%) = (ODcontrol − ODsample/ODcontrol) × 100. […] In addition, the level of cytotoxicity on normal cells was evaluated by determining the selectivity index (SI) of each compound, which is calculated as the ratio of cytotoxicity or reduced cell growth on normal cells to cancer cells (SI = normal cells/cancer cells).

[2] = Cytotoxicity MTT assay, Hep-2 laryngeal carcinoma; assay type: cell-based, human; conditions: dog MDCK normal cells versus Hep-2 laryngeal carcinoma cells; CC50 MDCK normal cells / Hep-2; read-out: Selectivity index (SI) of cytotoxic activity
Protocol: as §1

[3] = tested on: Hep-2; assay: Cytotoxicity MTT assay, Hep-2 laryngeal carcinoma; assay type: cell-based, human; conditions: Homo sapiens; Hep-2, MTT, 72 h; read-out: Cytotoxic activity CC50
Protocol: as §1

[4] = Cytotoxicity MTT assay, KB nasopharynx carcinoma; assay type: cell-based, human; conditions: human, MDCK normal cells versus KB nasopharynx carcinoma cells; CC50 MDCK normal cells / KB; read-out: Selectivity index (SI) of cytotoxic activity
Protocol: as §1

[5] = tested on: KB; assay: Cytotoxicity MTT assay, KB nasopharynx carcinoma; assay type: cell-based, human; conditions: Homo sapiens; KB, MTT, 72 h; read-out: Cytotoxic activity CC50
Protocol: as §1

[6] = tested on: HeLa; assay: Cytotoxicity MTT assay, HeLa cervix adenocarcinoma; assay type: cell-based, human; conditions: Homo sapiens; HeLa, MTT, 72 h; read-out: Cytotoxic activity CC50
Protocol: as §1

[7] = tested on: SiHa; assay: Cytotoxicity MTT assay, SiHa cervix squamous carcinoma; assay type: cell-based, human; conditions: Homo sapiens; SiHa, MTT, 72 h; read-out: Cytotoxic activity CC50
Protocol: as §1

[8] = Cytotoxicity MTT assay, DU-145 prostate carcinoma; assay type: cell-based, human; conditions: human, MDCK normal cells versus DU-145 prostate carcinoma cells; CC50 MDCK normal cells / DU-145; read-out: Selectivity index (SI) of cytotoxic activity
Protocol: as §1

[9] = tested on: DU-145; assay: Cytotoxicity MTT assay, DU-145 prostate carcinoma; assay type: cell-based, human; conditions: Homo sapiens; DU-145, MTT, 72 h; read-out: Cytotoxic activity CC50
Protocol: as §1

[10] = Cytotoxicity MTT assay, PC-3 prostate adenocarcinoma; assay type: cell-based, human; conditions: human, MDCK normal cells versus PC-3 prostate adenocarcinoma cells; CC50 MDCK normal cells / PC-3; read-out: Selectivity index (SI) of cytotoxic activity
Protocol: as §1

[11] = tested on: PC-3; assay: as above; assay type: cell-based, human; conditions: Homo sapiens; PC-3, MTT, 72 h; read-out: Cytotoxic activity CC50
Protocol: as §1

[12] = tested on: MDCK; assay: Antiproliferative sulforhodamine B assay, MDCK normal cell line; assay type: cell-based; conditions: Canis lupus familiaris, SRB, 48 h
Protocol: (§2) Three types of cancer cell lines obtained from the American Type Culture Collection (ATCC) were cultured: two oral-laryngeal cancer cell lines, nasopharynx carcinoma (KB, ATCC-CCL-17) and laryngeal carcinoma (Hep-2, ATCC-CCL-23); two cervix-uterine cancer cell lines, cervix adenocarcinoma (HeLa, ATCC-CCL-2) and cervix squamous carcinoma (SiHa, ATCC-HTB-35); and two prostate cancer cell lines, prostate carcinoma (DU-145, ATCC-HTB-81) and prostate adenocarcinoma (PC-3, ATCC-CRL-1435); along with one normal cell line (MDCK, ATCC-CCL-34). The cells were cultured in sterile Costar T75 flasks containing DMEM (Gibco, Hong Kong, China), supplemented with fetal bovine serum (10%, v/v), 100 U/mL penicillin G, and […] streptomycin at 37 °C in an atmosphere of 5% CO2 (95% humidity). At 70%–80% confluence, cells were detached from the cultured flask by treatment with 0.05% trypsin-EDTA (Gibco), and a suspension of 5 × 10^4 cells/mL of viable cells was seeded in a 96-well microtiter plate (Costar, Washington, DC, USA) and incubated.
(§3) The growth inhibition of cancer cells was evaluated by the sulforhodamine B method. When cells reached 70% confluence in a microtiter plate, the medium was replaced with DMEM 5% FBS and samples at various concentrations. After 48 h, the medium was discarded, and cells were fixed by adding 50 μL of 10% trichloroacetic acid (TCA, Sigma-Aldrich Chemical, St. Louis, MO, USA). The cells were then incubated at 4 °C for 30 min; TCA was drained off, and the plates were left to dry. Then, 50 μL of SRB stain (10 mg of 1% acetic acid, Sigma) were added to each well for 30 min. Finally, the plates were washed four times with 1% acetic acid (100 μL). The OD was measured at 540 nm using an ELISA reader (Bio-Rad). Docetaxel was used as a positive control, whereas cells incubated only with 0.05% of DMSO were used as a negative control. All determinations were performed in triplicate.
(§4) The cytotoxic and antiproliferative activities of tested compounds were calculated as the percentage of cells killed or the percentage of inhibition of cell proliferation, respectively, using the equation: growth inhibition (%) = (ODcontrol − ODsample/ODcontrol) × 100. […] In addition, the level of cytotoxicity on normal cells was evaluated by determining the selectivity index (SI) of each compound, which is calculated as the ratio of cytotoxicity or reduced cell growth on normal cells to cancer cells (SI = normal cells/cancer cells). It is generally considered that biological efficacy is not due to general toxicity when SI ≥ 10 [17].

[13] = tested on: Hep-2; assay: Antiproliferative sulforhodamine B assay, Hep-2; assay type: cell-based, human; conditions: Homo sapiens; Hep-2, SRB, 48 h
Protocol: as §2, §3, §4

[14] = tested on: KB; assay: Antiproliferative sulforhodamine B assay, KB; assay type: cell-based, human; conditions: Homo sapiens; KB, SRB, 48 h
Protocol: as §2, §3, §4

[15] = tested on: HeLa; assay: Antiproliferative sulforhodamine B assay, HeLa; assay type: cell-based, human; conditions: Homo sapiens; HeLa, SRB, 48 h
Protocol: as §2, §3, §4

[16] = tested on: SiHa; assay: Antiproliferative sulforhodamine B assay, SiHa; assay type: cell-based, human; conditions: Homo sapiens; SiHa, SRB, 48 h
Protocol: as §2, §3, §4

[17] = tested on: DU-145; assay: Antiproliferative sulforhodamine B assay, DU-145; assay type: cell-based, human
Protocol: as §2, §3, §4

[18] = tested on: PC-3; assay: Antiproliferative sulforhodamine B assay, PC-3; assay type: cell-based; conditions: Homo sapiens; PC-3, SRB, 48 h
Protocol: as §2, §3, §4

[19] = tested on: Leishmania mexicana; parameters: method as in PMID 17291734; conditions: cited from earlier work
[20] = tested on: Trypanosoma cruzi; parameters: method as in PMID 17291734; conditions: cited from earlier work

In the case of `CC(C)=CCc1c(O)ccc(C(=O)/C=C/c2ccccc2)c1O` [Compound 3, isocordoin], the CC50 at 72 h [1] is reported as 4.2 µg/mL and 14 µM, the selectivity ratio at 72 h [2] is reported as 0.7 and the CC50 [3] is reported as 6.1 µg/mL and 20 µM. The selectivity ratio at 72 h [4] was 0.5, the CC50 [5] was 11 µg/mL and 27 µM and the CC50 [6] was over 100 µg/mL. The CC50 [7] was over 100 µg/mL, the selectivity ratio at 72 h [8] was 0.6 and the CC50 [9] was 7 µg/mL and 23.1 µM. For the same molecule, the selectivity ratio at 72 h [10] was 0.23, the CC50 [11] was 18.4 µg/mL and 60.3 µM and the IC50 [12] was 18.4 µg/mL and 60.8 µM. The IC50 [13] was over 100 µM, the IC50 [14] was over 100 µM and the IC50 [15] was over 100 µM. For the same molecule, the IC50 [16] was over 100 µM, the IC50 ([17]; Homo sapiens, DU-145, SRB, 48 h) was 13.3 µg/mL and 43.8 µM and the “Selectivity index (SI) of antiproliferative activity” value ([17]; IC50 MDCK normal cells / DU-145) was 1.4. The IC50 [18] was over 100 µM, the “Activity against the parasite Leishmania mexicana” value [19] was “active” and the “Activity against the parasite Trypanosoma cruzi” value [20] was “active”.
